Data on 22 compounds can be found in paper PMC7221892, “In Vitro and in Vivo Activity of mTOR Kinase and PI3K Inhibitors Against Leishmania donovani and Trypanosoma brucei” (Molecules, 2020).

The subject of data set [1] is intracellular L. donovani. Put plainly: Intracellular L. donovani in THP-1 cells, dose-dilution high-content imaging assay. The format is cell-based. The conditions noted are these: for activity confirmation in dose-dilution assays: intracellular L. donovani EC50 / THP-1 CC50, result in words; for EC50: Leishmania donovani, THP-1 cells infected with L. donovani, 72 h, duplicate measurements, read-out: Intracellular L. donovani EC50 ± SD; for Selectivity Index (SI): SI = THP-1 CC50/Intracellular L. donovani EC50. The procedure: (§1) PMA-treated THP-1 human monocytic cells were seeded at 0.8 × 10^4 cells per well in a 384-well culture plate (Greiner Bio-One, Kremsmünster, Austria) in RPMI-1640 complete medium supplemented with 10% FBS. After 48 h of incubation at 37 °C in the presence of 5% CO2, the promastigotes of L. donovani that were incubated with lectin for 30 min at 28 °C were added to the cells at a parasite to cell ratio of 20:1. […] The negative control consisted of THP-1 infected with the parasite with only 0.5% DMSO. After 72 h, the cells that were infected and treated with the drug were washed with serum-free RPMI-1640 medium. The cells and parasites were stained using 5 μM DRAQ5 and 4% PFA. The images were acquired based on reading using an Operetta® automated microscope (PerkinElmer, Inc., Waltham, MA 02451 USA). They were further analyzed using Columbus^TM (PerkinElmer, Inc. Waltham, MA, USA) software to quantify parasite numbers, host cell numbers, and infection ratios. In brief, large-sized nucleus of host cells was first detected using Draq-5 (Thermo Fisher, Rockford, IL, USA) signal and the host cell boundary masking was performed using the low-intensity signals from cytosols (additional feature of Draq-5). Then the small-sized nucleus signal by Draq-5 was used to identify parasites within the area of masked host cell. Infection ratio (IR) was determined with the value of the number of infected cells divided by total number of cells and the average number of parasites per macrophage (P/φ) was defined by the value of the number of parasites divided by the number of infected cells in the acquired image.
(§2) All of the half maximal effective concentrations (EC50) and the half maximal cytotoxic concentrations (CC50) values were calculated using two independent experiments. The dose-response curves were fitted using GraphPad Prism 6 software (GraphPad Software, San Diego, CA, USA) by using a sigmoidal dose-response equation with a variable hill slope option.

Data set [2] can be described thus: Host cell cytotoxicity (CC50) in infected THP-1 cells, dose-dilution assay. The format is cell-based. As to conditions: human, infected THP-1 host cells, read-out: THP-1 Cell CC50 ± SD. The procedure:
as §1, §2

Data set [3] concerns L. donovani promastigotes. Put plainly: L. donovani promastigote growth inhibition (resazurin). The format is cell-based. As to conditions: Leishmania donovani, 72 h, 3 days exposure, read-out: L. donovani Promastigote EC50 ± SD. How it is done:
(§3) L. donovani promastigote and T. b. brucei Lister 427 BSF growth inhibition were assayed by measuring the conversion of resazurin to resorufin. The assays were performed in 384-well plates that were seeded with L. donovani promastigotes or T. brucei 427 BSF (5 × 10^4 cells per well). After seeding, the parasites were exposed to the compounds for 3 days. Resazurin sodium salt (200 μM; R7017; Sigma-Aldrich, St. Louis, MO, USA) was then added, and the samples were incubated for 5 h. After incubation, the parasites were fixed using 4% paraformaldehyde, and the plates were analyzed using a Victor3^TM plate reader (PerkinElmer, Inc., Waltham, MA, USA) at 590 nm (emission) and 530 nm (excitation). […] Pentamidine was used for the T. b. brucei Lister 427 BSF growth inhibition assay.
as §2
In general terms: Alamar Blue is a resazurin reagent that responds to reducing activity.

The test system of data set [4] is intracellular L. donovani. As to the kind of experiment: Pilot high-content screening against intracellular L. donovani at 10 μM. Type of data set: cell-based. As to conditions: screening concentration 10 µM. How it is done: as §1, with “image. The average IR value of the negative control wells was calculated as 0.53. Compounds selected based on the screening results were further assessed in a dose-dilution manner (two-fold serial dilution for 20 points starting from 100 μM) using the same method.” for “image.”

In data set [5] the test system is L. donovani. Put plainly: VL mouse model (L. donovani-infected BALB/c mice). The conditions noted are these: miltefosine 30, Torin2 15, dactolisib 50, NVP-BGT226 5 mg/kg. The format is in vivo. How it is done: The highest dose for each compound without showing adverse effects was selected based on literature search. The vehicle for the compounds was 5% N-methylpyrrolidone, 15% polyvinylpyrrolidone, and 80% deionized water. Drug dosing solutions were freshly prepared each day. All drugs were administered once daily for 5 days via the per os route. On day 16 post-infection, all animals were humanely euthanized and assessed microscopically using Giemsa-stained liver imprints. Parasite burdens were measured by counting (blinded to treatment) the number of amastigotes per 1000 cell nuclei and multiplying this number by the liver weight (mg) (Leishman-Donovan Unit: LDU). The LDU values for the drug-treated samples were compared to those of the untreated samples, and the percent inhibition values were calculated.

For data set [6], the system named is T. b. brucei Lister 427 BSF. As to the kind of experiment: T. b. brucei Lister 427 bloodstream form growth inhibition (resazurin). The conditions noted are these: Trypanosoma brucei, 72 h, 3 days exposure, read-out: T. brucei Lister 427 BSF EC50 ± SD. The format is cell-based. How it is done:
as §3, §2

Take `CN1[C@@H]2CC[C@H]1CC(OC(c1ccccc1)c1ccc(Cl)cc1)C2` (stereo partly drawn) [3-CPMT]: the “activity confirmation in dose-dilution assays” value (from here on “activity confirmation”) in data set [1] is “either low activity (half maximal effective concentration, EC50) or high toxicity (CC50)”.

For the compound `C[C@@H]1[C@H](O)[C@@H](C)/C=C/C=C/C=C/C=C/C=C/C=C/C=C/[C@H](O[C@@H]2O[C@H](C)[C@@H](O)[C@H](N)[C@@H]2O)C[C@@H]2O[C@](O)(C[C@@H](O)C[C@@H](O)[C@H](O)CC[C@@H](O)C[C@@H](O)CC(=O)O[C@H]1C)C[C@H](O)[C@H]2C(=O)O` [Amphotericin B], in data set [1], the EC50 (in general, the concentration that produces a half-maximal response) is 0.34 ± 0.04 µM and the “Selectivity Index (SI)” value was more than 11.8. For the same compound, the CC50 (usually the concentration at which the toxic effect on the cells reaches its halfway point) at 72 h in data set [2] was more than 4 µM. Moreover, the EC50 in data set [3] amounted to 0.015 ± 0.003 µM.

Turning to `CC[C@H](Nc1ncnc2[nH]cnc12)c1nc2cccc(F)c2c(=O)n1-c1ccccc1` [CAL-101], the “inhibition of intracellular parasite survival in screening” value (from here on “inhibition … in screening”) in data set [4] is “no direct effects on the parasite”.

Consider `Cc1cc(Nc2cc(N3CCN(C)CC3)nc(/C=C/c3ccccc3)n2)n[nH]1` [ENMD-2076], for which the “activity confirmation” value in data set [1] was “either low activity (half maximal effective concentration, EC50) or high toxicity (CC50)”.

Turning to `Fc1ccc(C(OCCN2CCN(CCCc3ccccc3)CC2)c2ccc(F)cc2)cc1` [GBR12909], the “activity confirmation” value in data set [1] is recorded as “either low activity (half maximal effective concentration, EC50) or high toxicity (CC50)”.

In the case of `O=S(=O)(NCCNC/C=C/c1ccc(Br)cc1)c1cccc2cnccc12` [H89], the “activity confirmation” value in data set [1] is “either low activity (half maximal effective concentration, EC50) or high toxicity (CC50)”.

On to `CCCCCCCCCCCCCCCCOP(=O)([O-])OCC[N+](C)(C)C` [Miltefosine], for which the “Inhibition of L. donovani In Vivo (%) (Mean ± SD)” value in data set [5] (liver parasite burden vs vehicle, per os 5 days) amounted to 87 ± 2.13%. In data set [5] (once daily per os for 5 days from day 7 post-infection), the “LDU in the Liver (Mean ± SD)” value is 142 ± 24 LDU. Besides, the EC50 in data set [1] was 4.81 ± 0.81 µM. The CC50 at 72 h in data set [2] was more than 40 µM.

On to `COc1ccccc1C1(O)CCN(CCCn2c3ccccc3c3ccccc32)CC1` [NNC05–2090], for which the “activity confirmation” value in data set [1] is on record as “confirmed to be active”.

`CCn1nnc2c(N3CCOCC3)nc(-c3ccc(NC(=O)Nc4ccc(C(=O)N5CCN(C)CC5)cc4)cc3)nc21` [PKI-402]: the concentration for a half-maximal effect (EC50) in data set [6] came out at 0.26 ± 0.02 µM; in data set [1] it was 13.4 ± 2.35 µM; in data set [3], 0.49 ± 0.22 µM. Moreover, the “Selectivity Index (SI)” value in data set [1] worked out at 2.1. Further, in data set [2], the cytotoxic concentration (CC50) at 72 h was 28.5 ± 1.2 µM.

Consider `N=C(N)c1ccc(OCCCCCOc2ccc(C(=N)N)cc2)cc1` [Pentamidine], for which the EC50 in data set [6] was 0.15 ± 0.01 µM.

With `[O-][S+](c1ccccc1)c1ccc2nnnn2n1` (stereo not drawn) [Ro 106–9920], the “activity confirmation” value in data set [1] is reported as “confirmed to be active”.

Turning to `COc1ccc(CCCOC(Cn2ccnc2)c2ccc(OC)cc2)cc1` (stereo not drawn) [SKF 96365], the “activity confirmation” value in data set [1] is listed as “confirmed to be active”.

Turning to `CC(C)n1nc(-c2ccc3oc(N)nc3c2)c2c(N)ncnc21` [Sapanisertib], the EC50 in data set [6] is 5.34 ± 0.98 µM; in data set [1], 6.39 ± 1.12 µM; in data set [3], 7.46 ± 1.04 µM. For the same compound, the CC50 at 72 h in data set [2] is more than 100 µM.

For `CNC(=O)Nc1ccc(-c2nc(N3CC4CCC(C3)O4)c3cnn(C4CCC5(CC4)OCCO5)c3n2)cc1` [WYE-125132], the EC50 in data set [6] is 0.12 ± 0.01 µM; in data set [1], 2.26 ± 0.71 µM; in data set [3], 0.36 ± 0.04 µM. In data set [1], the “Selectivity Index (SI)” value was 19. In data set [2], the CC50 at 72 h came to 43.3 ± 2.7 µM.

For `CC(C)c1ccc(C(=O)c2cccs2)c(SCCCCCCCCN(C)C)n1` [Y29794], in data set [1], the “activity confirmation” value is recorded as “confirmed to be active”.

For the compound `CN(C)C/C=C/C(=O)Nc1cc2c(Nc3ccc(F)c(Cl)c3)ncnc2cc1O[C@H]1CCOC1` [afatinib], in data set [1], the “activity confirmation” value is “either low activity (half maximal effective concentration, EC50) or high toxicity (CC50)”.

In the case of `COc1cc2c(Oc3ccc4[nH]c(C)cc4c3F)ncnc2cc1OCCCN1CCCC1` [cediranib], in data set [1], the “activity confirmation” value is given as “either low activity (half maximal effective concentration, EC50) or high toxicity (CC50)”.

With `CO[C@H]1C[C@@H]2CC[C@@H](C)[C@@](O)(O2)C(=O)C(=O)N2CCCC[C@H]2C(=O)O[C@H]([C@H](C)C[C@@H]2CC[C@@H](OP(C)(C)=O)[C@H](OC)C2)CC(=O)[C@H](C)/C=C(\C)[C@@H](O)[C@@H](OC)C(=O)[C@H](C)C[C@H](C)/C=C/C=C/C=C/1C` [deforolimus], in data set [4], the “inhibition … in screening” value is recorded as “did not show potent inhibition”.

For the compound `CO[C@H]1C[C@@H]2CC[C@@H](C)[C@@](O)(O2)C(=O)C(=O)N2CCCC[C@H]2C(=O)O[C@H]([C@H](C)C[C@@H]2CC[C@@H](OCCO)[C@H](OC)C2)CC(=O)[C@H](C)/C=C(\C)[C@@H](O)[C@@H](OC)C(=O)[C@H](C)C[C@H](C)/C=C/C=C/C=C/1C` [everolimus], in data set [4], the “inhibition … in screening” value is reported as “did not show potent inhibition”.

Take `S=C=Nc1cccc(C2(N3CCCCC3)CCCCC2)c1` [metaphit]: the “activity confirmation” value in data set [1] is on record as “confirmed to be active”.

With `CO[C@H]1C[C@@H]2CC[C@@H](C)[C@@](O)(O2)C(=O)C(=O)N2CCCC[C@H]2C(=O)O[C@H]([C@H](C)C[C@@H]2CC[C@@H](O)[C@H](OC)C2)CC(=O)[C@H](C)/C=C(\C)[C@@H](O)[C@@H](OC)C(=O)[C@H](C)C[C@H](C)/C=C/C=C/C=C/1C` [rapamycin], the “inhibition … in screening” value in data set [4] was “did not show potent inhibition”.

Take `CO[C@H]1C[C@@H]2CC[C@@H](C)[C@@](O)(O2)C(=O)C(=O)N2CCCC[C@H]2C(=O)O[C@H]([C@H](C)C[C@@H]2CC[C@@H](OC(=O)C(C)(CO)CO)[C@H](OC)C2)CC(=O)[C@H](C)/C=C(\C)[C@@H](O)[C@@H](OC)C(=O)[C@H](C)C[C@H](C)/C=C/C=C/C=C/1C` [temsirolimus]: the “inhibition … in screening” value in data set [4] is “did not show potent inhibition”.
